Assay results published in patent US20100184113A1, “CONTROLLING OSTEOGENESIS BY INHIBITION OF OSTEOGENIC SUPPRESSORS” (The Scripps Research Institute Office of Patent Counsel, priority 2006, published 2010).

What was measured:
Type in all cases: cell-based, human
[1] = system: hMSCs; test: Alizarin red staining for calcium phosphate deposits (ECM mineralization, bone cell maturation); details: for intensity of alizarin red staining: OS treatment started three days after siRNA transfection and continued for 9 days (3+9OS), vs siCon
[2] = system: hMSCs; test: Adipogenic differentiation of hMSCs, Oil Red O staining; details: for differentiation of hMSCs into mature adipocytes: cAMP analog combined with dexamethasone; for cell fate commitment osteogenic vs adipogenic: compound combined with the OS media; for adipogenic differentiation of hMSCs, cAMP-raising compounds: compound treatment, especially in the presence of dexamethasone (FIG. 7b)
Description: Cells were rinsed with PBS twice, fixed in 10% formalin solution for 20 minutes, rinsed with PBS twice and dH2O once, washed with propylene glycol for 5 minutes, and stained with Oil red in propylene glycol (12722A, Newcomer Supply) for 30 minutes. Cells were then washed with 85% propylene glycol for 5 minutes, rinsed with dH2O 3 times and preserved in 50% glycerol.
(§1) 8-CPT-cAMP, Na (cat# 116812), 5-Iodotubercidin (cat# 407900), Prostaglandin E2 (PGE2, cat# 538904), SB 202190 (cat# 559388) and U0126 (cat# 662005) were purchased from Calbiochem; N6,2′-O-Dibutyryl-cAMP (cat# D0260-5MG), forskolin (cat# F6886), ascorbic acid 2-phosphate (cat# 49752-10G), (3-glycerophosphate (G-6251), dexamethasone (D8893), 3-isobutyl-1-methylxanthine (IBMX, 15879) and Insulin (19278) were purchased from Sigma/Aldrich/Fluka.
Bone cell maturation is accompanied by extracellular matrix (ECM) mineralization (John Bilezikian et al., Principles of bone biology, Vol 1, 2nd edn: Academic Press) (2002)). To examine whether the osteogenic differentiation of hMSCs induced by the hit siRNAs can further proceed to the maturation stage, hit siRNA treated cells were cultured for 20 days. […] These observations are consistent with the conclusion that the targeted genes of the ten effective hit siRNAs not only play inhibitory roles in osteogenic specification of hMSCs, but also in bone cell maturation. […] Furthermore, in osteoporotic patients, the number of adipocytes was increased in the marrow, implying a change of cell fate disposition from osteoblast lineage to adipocyte lineage (Justesen, J. et al., Biogerontology 2:165-171 (2001); Meunier, P. et al., Clin Orthop Relat Res 80:147-154 (1971)). We therefore examined the effect of our hit siRNAs on adipogenic differentiation of hMSCs by combined treatment with an adipogenic inducing cocktail (100 μg/ml BMX, 1 μM DEX and 10 μg/ml insulin).
(§2) Since the targeted genes are all positively involved in intracellular cAMP signaling, we tested the effect of two compounds of opposing function on cAMP production on osteogenic differentiation of hMSCs, ADK inhibitor 5-iodotubercidin and ADCY activator forskolin (Cottam, H. B. et al., J Med Chem 36:3424-3430 (1993); de Souza, N. J. et al., Med Res Rev 3:201-219 (1983)). […] ATP has been shown as a ligand for P2RY11 receptor (Communi et al., 1997). […] The present observations are consistent with the conclusion that […] in hMSCs, and vice versa.

[3] = system: hMSCs; test: Compound treatment on OS-induced osteogenic differentiation of hMSCs (ALP / alizarin red staining); details: for osteogenic differentiation of hMSCs combined with OS treatment: compound plus OS media
Description: as §1, §2

[4] = system: CREB; test: Western blot of active (phosphorylated) CREB; details: 3 days after transfection, vs siCon treated or untreated
Description: Cell lyses buffer contains 20 mM Tris pH8.0, 1 mM EDTA, 150 mM NaCl and 0.5% NP-40, and before usage, protease inhibitor cocktail (Cat# p8340, Sigma, 1:100 dilution) and phosphatase inhibitor cocktail 2 (Cat# p5726, sigma, 1:100 dilution) were added. Proteins (60 μg/well) were separated in 12% Novex Tris-Glycine gel (Cat# EC6008 box, Invitrogen) and transferred to Nitrocellulose membrane (Cat# LC2001, Invitrogen) using the XCell II blot module system (Cat# E19051, Invitrogen). The membrane was blocked in 5% milk/PBST for 1 hour at room temperature, incubated over night at 4 degree with primary antibody, washed 3 times with PBST (0.05% Tween 20 in PBS), followed by one hour incubation with secondary antibody in 5% milk/PBST and 3 times wash with PBST at room temperature. For antibody against pCREB however, PBST was substituted with PBS in all steps except for the last one. Antibody-bound proteins were detected utilizing ECL Western blotting detection reagent (Amersham Biosciences).
Anti-phospho-CREB was purchased from Upstate Biotechnology (cat# 06-519); Anti-phospho-p38 was purchased from Cell signaling technology (cat# 9910).
To find out whether CREB (cAMP Responding Element Binding protein), a common downstream effector of cAMP signaling pathway, is involved in mediating cAMP signaling controlled differentiation of hMSCs, we checked the expression level of the active form of CREB proteins in cells 3 days after siP2RY11, siADK, siGNAS, siSLC12a2 or siCon transfection. […] To further examine the role of CREB in osteogenesis and adipogenesis, a synthetic 24-mer CRE decoy oligonucleotide that can compete with endogenous CRE enhancers for binding proteins was transfected into hMSCs (Park, Y. G. et al., J Biol Chem 274:1573-1580 (1999)), which were then subjected to the treatment of osteogenic or adipogenic induction media.

**Q.** How did the “intensity of alizarin red staining” value [1] turn out when “siBIRC4: siRNA UGUGCUACACAGUCAUUAC targeting baculoviral IAP repeat-containing 4 (listed as RNA, chemistry not given here)” was run?
**A.** weak enhancement

**Q.** With Nc1ncnc2c1nc(Sc1ccc(Cl)cc1)n2[C@@H]1O[C@@H]2COP(=O)(O)O[C@H]2[C@H]1O [8-CPT-cAMP] as the compound, how does the “differentiation of hMSCs into mature adipocytes” value [2] read?
**A.** sufficient to differentiate hMSCs into mature adipocytes

**Q.** What about the “cell fate commitment osteogenic vs adipogenic” value [2] of the same compound?
**A.** could switch cell fate commitment from osteogenic to adipogenic

**Q.** What about the “adipogenic differentiation of hMSCs, cAMP-raising compounds” value [2] of the same compound?
**A.** promoted hMSCs to undergo adipogenic differentiation

**Q.** Which “intensity of alizarin red staining” value [1] does the source give for “siBCL212: siRNA CCCAGGUCUCCGAUGAACU targeting BCL2-like 2 (listed as RNA, chemistry not given here)” here?
**A.** modest enhancement

**Q.** Oc1ccc(-c2nc(-c3ccncc3)c(-c3ccc(F)cc3)[nH]2)cc1 [SB202190] was tested. Which “osteogenic differentiation of hMSCs combined with OS treatment” value (“osteogenic differentiation” below) [3] did it give?
**A.** inhibited the osteogenic inducing effect of OS

**Q.** Nc1ncnc2c1c(I)cn2[C@@H]1O[C@H](CO)[C@@H](O)[C@H]1O [5-iodotubercidin] was tested. Which “osteogenic differentiation” value [3] did it give?
**A.** significantly enhanced the osteogenic differentiation of hMSCs

**Q.** And the “adipogenic differentiation of hMSCs under compound” value ([2]; compound plus adipogenic inducing media, oil red o staining (FIG. 7a j-l))?
**A.** inhibited the adipogenic differentiation of hMSCs in a dose dependent manner

**Q.** How did the “level of pCREB protein” value [4] turn out when “siADK: siRNA GCCACACAAAGCAGCAACA targeting adenosine kinase (listed as RNA, chemistry not given here)” was run?
**A.** increased

**Q.** And the “intensity of alizarin red staining” value [1]?
**A.** dramatically enhanced

**Q.** And the “intensity of alizarin red staining, sequential treatment” value ([1]; siRNA (initial 2-4 days) followed by OS media, vs control treatment (FIG. 4))?
**A.** clearly enhanced the intensity of alizarin red staining

**Q.** “siP2RY11: siRNA UGCGGGUGCUCAACGUGGA targeting purinergic receptor P2Y, G-protein coupled, 11 (listed as RNA, chemistry not given here)” was tested. Which “level of pCREB protein” value [4] did it give?
**A.** increased

**Q.** What about the “intensity of alizarin red staining” value [1] of the same compound?
**A.** dramatically enhanced

**Q.** How did the “level of pCREB protein” value [4] turn out when “siGNAS: siRNA UCGAAGAUUGAGGACUACU targeting GNAS complex locus (listed as RNA, chemistry not given here)” was run?
**A.** increased

**Q.** And the “intensity of alizarin red staining” value [1]?
**A.** dramatically enhanced

**Q.** “siTBX3: siRNA UGCCAAAGAGGAUGUACAU targeting T-box 3 (ulnar mammary syndrome) (listed as RNA, further chemistry not given here)” was tested. Which “intensity of alizarin red staining” value [1] did it give?
**A.** no significant effect

**Q.** “siKCNT1: siRNA UGCGAGCCAAGAUGGACAA targeting potassium channel, subfamily T, member 1 (listed as RNA, chemistry not given here)” was tested. Which “intensity of alizarin red staining” value [1] did it give?
**A.** dramatically enhanced

**Q.** For COc1cccc(-c2cc(=O)c3ccccc3o2)c1N [PD98059], which “osteogenic differentiation” value [3] is on record?
**A.** inhibited the osteogenic inducing effect of OS

**Q.** With “siSLC12a2: siRNA CCUCUUCGUGGCUACAUCU targeting solute carrier family 12, member 2 (listed as RNA, chemistry not given here)” as the compound, how does the “level of pCREB protein” value [4] read?
**A.** increased

**Q.** What about the “intensity of alizarin red staining” value [1] of the same compound?
**A.** dramatically enhanced

**Q.** “siGBDR1: siRNA CCCGAAAACAUUGCUAGCA targeting putative glialblastoma cell differentiation-related (listed as RNA, chemistry not given here)” was tested. Which “intensity of alizarin red staining” value [1] did it give?
**A.** dramatically enhanced

**Q.** CC(C)Cn1c(=O)n(C)c(=O)c2[nH]cnc21 [IBMX, 3-isobutyl-1-methylxanthine] was tested. Which “cell fate commitment osteogenic vs adipogenic” value [2] did it give?
**A.** could switch cell fate determination from osteogenic to adipogenic differentiation

**Q.** What about the “adipogenic differentiation of hMSCs, cAMP-raising compounds” value [2] of the same compound?
**A.** promoted hMSCs to undergo adipogenic differentiation

**Q.** With CCCCC[C@H](O)/C=C/[C@H]1[C@H](O)CC(=O)[C@@H]1C/C=C\CCCC(=O)O [PGE2, Prostaglandin E2] as the compound, how does the “cell fate commitment osteogenic vs adipogenic” value [2] read?
**A.** could switch cell fate determination from osteogenic to adipogenic differentiation

**Q.** Which “differentiation of hMSCs into mature adipocytes” value [2] does the source give for CCCC(=O)Nc1ncnc2c1ncn2[C@@H]1O[C@@H]2COP(=O)(O)O[C@H]2[C@H]1OC(=O)CCC [DB-cAMP, N6,2′-dibutyryl-cAMP] here?
**A.** sufficient to differentiate hMSCs into mature adipocytes

**Q.** And the “adipogenic differentiation of hMSCs, cAMP-raising compounds” value [2]?
**A.** promoted hMSCs to undergo adipogenic differentiation

**Q.** How did the “siP2RY11 and siSLC12a2 induced osteogenesis in combination with OS” value ([3]; OS and ATP added on third day after siRNA transfection, continued for a week, ALP staining) turn out when Nc1ncnc2c1ncn2[C@@H]1O[C@H](COP(=O)(O)OP(=O)(O)OP(=O)(O)O)[C@@H](O)[C@H]1O [ATP] was run?
**A.** dosage-dependent inhibitory effect

**Q.** And the “osteogenic differentiation” value [3]?
**A.** inhibited the OS-induced osteogenesis of hMSCs

**Q.** And the “number of cells undergoing adipogenic differentiation” value ([2]; ATP treatment of OS-treated hMSCs)?
**A.** slightly increases

**Q.** Which “intensity of alizarin red staining” value [1] does the source give for “siADCY8: siRNA GGAGAUCAACAAGCAUUCA targeting adenylate cyclase 8 (listed as RNA, chemistry not given here)” here?
**A.** weak enhancement
